This passage reports IC50 results from patent publication US20210238192A1, “VASCULAR ADHESION PROTEIN-1 (VAP-1) MODULATORS AND THERAPEUTIC USES THEREOF” (Blade Therapeutics, Inc., priority 2018, published 2021).

As a reminder, the IC50 is the concentration that inhibits the measured activity by half.

Structures are written as SMILES. Structures can show the parent of a compound that is named as a salt.

Assay type in all cases: biochemical
The target of one assay is T1, Human MAO-A (Homo sapiens, UniProt P21397).
T1 sequence (P21397 1-527): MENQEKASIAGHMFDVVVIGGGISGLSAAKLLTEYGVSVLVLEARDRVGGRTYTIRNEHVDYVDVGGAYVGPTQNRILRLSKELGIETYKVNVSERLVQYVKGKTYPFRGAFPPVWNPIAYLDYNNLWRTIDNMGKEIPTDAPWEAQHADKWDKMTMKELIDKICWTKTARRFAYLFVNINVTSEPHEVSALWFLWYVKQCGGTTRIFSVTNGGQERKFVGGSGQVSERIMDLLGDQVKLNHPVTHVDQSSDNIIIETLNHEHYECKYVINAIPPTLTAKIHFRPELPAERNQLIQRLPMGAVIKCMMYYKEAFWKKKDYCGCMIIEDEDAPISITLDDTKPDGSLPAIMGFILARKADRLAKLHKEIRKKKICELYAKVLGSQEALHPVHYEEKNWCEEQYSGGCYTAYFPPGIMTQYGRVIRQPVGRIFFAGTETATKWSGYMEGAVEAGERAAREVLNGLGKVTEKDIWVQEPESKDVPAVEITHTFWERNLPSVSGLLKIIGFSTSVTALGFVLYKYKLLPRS
Kind of assay: MAO-A inhibition (Amplex Red continuous fluorescence assay). As to conditions: 30 min pre-incubation at room temp; substrate tyramine; read-out: Human MAO-A IC50. Summed up:
(§1)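 Continuous Amplex Red/HRP fluorescence read of H2O2 (ex/em 510/565 nm, 5 min). Substrates and buffers: VAP-1 benzylamine, […] sodium phosphate pH 7.4, 30 min 37° C preincubation; MAO-A tyramine and MAO-B benzylamine, same buffer, room temp; DAO histamine, 50 mM HEPES pH 7.5, room temp. IC50 from 4-parameter fit of rates.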

A further assay has as its target T2, Human DAO (Homo sapiens, UniProt P19801).
T2 sequence (P19801 20-751): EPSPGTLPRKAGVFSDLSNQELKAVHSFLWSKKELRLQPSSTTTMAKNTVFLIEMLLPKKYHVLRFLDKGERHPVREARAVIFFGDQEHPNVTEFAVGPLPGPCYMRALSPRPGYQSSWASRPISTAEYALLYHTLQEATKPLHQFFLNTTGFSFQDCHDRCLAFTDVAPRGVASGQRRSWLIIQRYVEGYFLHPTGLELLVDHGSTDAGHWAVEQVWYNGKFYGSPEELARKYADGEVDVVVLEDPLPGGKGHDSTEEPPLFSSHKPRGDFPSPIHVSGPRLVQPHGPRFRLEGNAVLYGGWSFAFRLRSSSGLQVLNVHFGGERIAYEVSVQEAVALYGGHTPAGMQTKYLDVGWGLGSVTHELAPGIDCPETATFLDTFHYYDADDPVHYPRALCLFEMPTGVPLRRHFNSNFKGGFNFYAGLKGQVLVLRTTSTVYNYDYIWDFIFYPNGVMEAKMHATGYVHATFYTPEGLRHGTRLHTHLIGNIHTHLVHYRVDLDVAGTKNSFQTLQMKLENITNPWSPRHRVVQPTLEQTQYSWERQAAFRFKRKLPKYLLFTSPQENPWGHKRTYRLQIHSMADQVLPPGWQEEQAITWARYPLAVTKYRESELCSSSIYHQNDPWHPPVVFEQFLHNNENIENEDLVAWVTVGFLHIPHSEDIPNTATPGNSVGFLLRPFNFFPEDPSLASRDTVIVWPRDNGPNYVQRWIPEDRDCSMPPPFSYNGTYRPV
The assay can be described thus: DAO inhibition (Amplex Red continuous fluorescence assay). The settings on record: 30 min pre-incubation at room temp; substrate histamine; read-out: Human DAO IC50. In short, it runs like this: as §1

The target of a further assay is T3, Human VAP-1 (Homo sapiens, UniProt Q16853).
T3 sequence (Q16853 1-763): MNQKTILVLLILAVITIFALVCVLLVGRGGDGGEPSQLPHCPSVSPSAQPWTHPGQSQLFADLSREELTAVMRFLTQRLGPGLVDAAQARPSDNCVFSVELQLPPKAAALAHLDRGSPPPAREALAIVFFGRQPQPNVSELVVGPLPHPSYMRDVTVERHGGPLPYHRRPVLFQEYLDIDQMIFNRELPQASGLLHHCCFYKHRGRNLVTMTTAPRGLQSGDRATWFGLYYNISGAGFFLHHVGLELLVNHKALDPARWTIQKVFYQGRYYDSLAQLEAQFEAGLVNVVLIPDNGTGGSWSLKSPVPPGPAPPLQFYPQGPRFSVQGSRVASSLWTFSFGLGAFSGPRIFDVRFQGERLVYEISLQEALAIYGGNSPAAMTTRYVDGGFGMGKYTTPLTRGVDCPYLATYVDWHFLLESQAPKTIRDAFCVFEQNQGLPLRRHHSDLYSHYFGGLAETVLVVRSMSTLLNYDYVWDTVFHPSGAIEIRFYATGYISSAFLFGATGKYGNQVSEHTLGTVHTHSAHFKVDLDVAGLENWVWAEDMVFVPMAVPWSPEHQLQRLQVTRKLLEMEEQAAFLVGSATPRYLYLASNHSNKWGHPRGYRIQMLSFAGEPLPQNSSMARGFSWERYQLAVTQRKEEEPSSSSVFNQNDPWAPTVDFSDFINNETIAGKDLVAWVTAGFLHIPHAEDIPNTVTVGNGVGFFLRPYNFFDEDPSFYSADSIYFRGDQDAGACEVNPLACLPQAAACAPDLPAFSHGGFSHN
Kind of assay: VAP-1 inhibition assay (Amplex Red continuous fluorescence assay). The settings on record: 30 min pre-incubation at 37° C.; substrate benzylamine; read-out: Human VAP-1 IC50. In short, it runs like this: as §1

In another assay the target is T4, Human MAO-B (Homo sapiens, UniProt P27338).
T4 sequence (P27338 1-520): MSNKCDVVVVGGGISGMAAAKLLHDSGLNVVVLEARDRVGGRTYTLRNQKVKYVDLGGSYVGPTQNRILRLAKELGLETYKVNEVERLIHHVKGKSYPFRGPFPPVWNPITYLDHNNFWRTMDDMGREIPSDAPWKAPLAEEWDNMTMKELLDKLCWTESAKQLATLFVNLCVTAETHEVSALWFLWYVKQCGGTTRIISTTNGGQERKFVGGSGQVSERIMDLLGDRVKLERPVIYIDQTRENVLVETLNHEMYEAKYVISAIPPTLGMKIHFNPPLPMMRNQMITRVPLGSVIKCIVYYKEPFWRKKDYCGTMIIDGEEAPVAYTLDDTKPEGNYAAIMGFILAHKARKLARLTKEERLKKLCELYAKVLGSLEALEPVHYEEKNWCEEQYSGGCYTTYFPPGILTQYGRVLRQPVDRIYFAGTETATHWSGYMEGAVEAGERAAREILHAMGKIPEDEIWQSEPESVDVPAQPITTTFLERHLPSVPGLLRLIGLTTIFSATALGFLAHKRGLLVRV
Kind of assay: MAO-B inhibition (Amplex Red continuous fluorescence assay). The settings on record: 30 min pre-incubation at room temp; substrate benzylamine; read-out: Human MAO-B IC50. Summed up: as §1

With `NC/C(=C/F)COc1cnc(N2CC[C@H](O)C2)nc1` [Compound 80], the IC50 at Human MAO-A was over 10 µM; at Human DAO, under 3 µM; on Human VAP-1, under 3 µM; at Human MAO-B it was over 10 µM.

Turning to `CC(C)(C)NC(=O)c1ccc(NC/C(=C\F)CN)cc1` [Compound 46, (Z)-4-((2-(aminomethyl)-3-fluoroalkyl)amino)-N-(tert-butyl)benzamide hydrochloride], the IC50 is over 10 µM at Human MAO-A, 3 to 10 µM at Human DAO, under 3 µM at Human VAP-1 and under 3 µM on Human MAO-B.

As to `Cn1nccc1-c1ccc(OC/C(=C/F)CN)cc1` [Compound 48, (E)-3-fluoro-2-((4-(1-methyl-1H-pyrazol-5-yl)phenoxy)methyl)prop-2-en-1-amine hydrochloride], the IC50 was over 10 µM on Human MAO-A, under 3 µM on Human DAO, under 3 µM at Human VAP-1 and under 3 µM at Human MAO-B.

For the compound `NC/C(=C/F)COc1ccc(-c2nc3ccccc3[nH]2)cc1` [Compound 11, (Z)-2-((4-(1H-benzo[d]imidazol-2-yl)phenoxy)methyl)-3-fluoroprop-2-en-1-amine hydrochloride], the IC50 on Human MAO-A, at Human DAO, on Human VAP-1 and on Human MAO-B was under 3 µM in each case.

`NC/C(=C\F)COc1ccc(-c2nnn[nH]2)cc1` [Compound 51, (E)-2-((4-(1H-tetrazol-5-yl)phenoxy)methyl)-3-fluoroprop-2-en-1-amine hydrochloride]: the half-maximal inhibitory concentration (IC50) at Human MAO-A was over 10 µM; on Human DAO, 3 to 10 µM; at Human VAP-1, under 3 µM; at Human MAO-B, over 10 µM.

In the case of `Cn1cnc(-c2ccc(OC/C(=C/F)CN)cc2)c1` [Compound 39, (E)-3-fluoro-2-((4-(1-methyl-1H-imidazol-4-yl)phenoxy)methyl)prop-2-en-1-amine], the IC50 at Human MAO-A was over 10 µM; at Human DAO, under 3 µM; on Human VAP-1, under 3 µM; on Human MAO-B, under 3 µM.

In the case of `NC/C(=C\F)CNC(=O)c1ccccc1` [Compound 21, (E)-N-(2-(aminomethyl)-3-fluoroalkyl)benzamide hydrochloride], the IC50 on Human MAO-A is 3 to 10 µM; on Human DAO it was over 10 µM; at Human VAP-1 it was under 3 µM; at Human MAO-B, over 10 µM.

Consider `CC(C)NC(=O)Nc1ccc(OC/C(=C/F)CN)cc1` [Compound 18, (E)-1-(4-((2-(aminomethyl)-3-fluoroalkyl)oxy)phenyl)-3-isopropylurea hydrochloride], for which the IC50 on Human MAO-A is under 3 µM; at Human DAO it was 3 to 10 µM; at Human VAP-1, under 3 µM; on Human MAO-B it was under 3 µM.

Take `NC/C(=C\F)CN1CCc2ccccc21` [Compound 62, (E)-3-fluoro-2-(indolin-1-ylmethyl)prop-2-en-1-amine hydrochloride]: the IC50 on Human MAO-A is over 10 µM; at Human DAO it was under 3 µM; at Human VAP-1, under 3 µM; at Human MAO-B, over 10 µM.

Take `NC/C(=C\F)COc1ccc(-c2cocn2)cc1` [Compound 29, (E)-3-fluoro-2-((4-(oxazol-4-yl)phenoxy)methyl)prop-2-en-1-amine hydrochloride]: the IC50 on Human MAO-A, at Human DAO, on Human VAP-1 and on Human MAO-B was under 3 µM throughout.

Take `NC/C(=C\F)CNc1ccccc1` [Compound 3, (E)-2-(fluoromethylene)-N^1-phenylpropane-1,3-diamine hydrochloride]: the IC50 at Human MAO-A was over 10 µM; on Human DAO it was over 10 µM; at Human VAP-1 it was under 3 µM; at Human MAO-B it was under 3 µM.

Regarding `CC(C)(C)NC(=O)c1ccc(NC/C(=C/F)CN)cc1` [Compound 45, (E)-4-((2-(aminomethyl)-3-fluoroalkyl)amino)-n-(tert-butyl)benzamide hydrochloride], the IC50 on Human MAO-A was over 10 µM; on Human DAO, over 10 µM; on Human VAP-1, under 3 µM; on Human MAO-B, under 3 µM.
